For orientation: Ki means a measure of affinity in units of concentration, obtained from inhibition or displacement.

The text below walks through data of patent US7220756B2, “N-sulfonylheterocyclopyrrolyl-alkylamine compounds as 5-hydroxytryptamine-6 ligands” (Wyeth, priority 2003, dated 2007).

The assay concerns the target T1, human cloned 5-HT6 receptors (Homo sapiens, UniProt P50406).
T1 construct: expressed in transfected cells; host or cells: HeLa cells
Kind of assay: 5-HT6 binding affinity, [3H]-LSD displacement. The conditions noted are these: membranes of Hela cells expressing human cloned 5-HT6 receptors; [3H]-LSD 3.0 nM; 120 min, room temperature; read-out: 5-HT6 Binding Ki. The protocol:
The affinity of test compounds for the serotonin 5-HT6 receptor is evaluated in the following manner. Cultured Hela cells expressing human cloned 5-HT6 receptors are harvested and centrifuged at low speed (1,000×g) for 10.0 min to remove the culture media. The harvested cells are suspended in half volume of fresh physiological phosphate buffered saline solution and recentrifuged at the same speed. This operation is repeated. The collected cells are then homogenized in ten volumes of 50 mM Tris.HCl (pH 7.4) and 0.5 mM EDTA. The homogenate is centrifuged at 40,000×g for 30.0 min and the precipitate is collected. The obtained pellet is resuspended in 10 volumes of Tris.HCl buffer and recentrifuged at the same speed. The final pellet is suspended in a small volume of Tris.HCl buffer and the tissue protein content is determined in aliquots of 10–25 μl volumes. Bovine Serum Albumin is used as the standard in the protein determination according to the method described in Lowry et al., J. Biol. Chem., 193:265 (1951). The volume of the suspended cell membranes is adjusted to give a tissue protein concentration of 1.0 mg/ml of suspension. The prepared membrane suspension (10 times concentrated) is aliquoted in 1.0 ml volumes and stored at −70° C. until used in subsequent binding experiments.
The reaction is allowed to proceed in the dark for 120 min at room temperature, at which time, the bound ligand-receptor complex is filtered off on a 96 well unifilter with a Packard Filtermate® 196 Harvester. The bound complex caught on the filter disk is allowed to air dry and the radioactivity is measured in a Packard TopCount® equipped with six photomultiplier detectors, after the addition of 40.0 μl Microscint®−20 scintillant to each shallow well. The unifilter plate is heat-sealed and counted in a PackardTopCount® with a tritium efficiency of 31.0%.
Binding in the presence of varying concentrations of test compound is expressed as a percentage of specific binding in the absence of test compound. The results are plotted as log % bound versus log concentration of test compound. […] A linear regression line of data points is plotted, from which the IC50 value is determined and the Ki value is determined based upon the following equation: Ki=IC50/(1+L/KD) where L is the concentration of the radioactive ligand used and KD is the dissociation constant of the ligand for the receptor, both expressed in nM.

T1 sequence (P50406 whole entry): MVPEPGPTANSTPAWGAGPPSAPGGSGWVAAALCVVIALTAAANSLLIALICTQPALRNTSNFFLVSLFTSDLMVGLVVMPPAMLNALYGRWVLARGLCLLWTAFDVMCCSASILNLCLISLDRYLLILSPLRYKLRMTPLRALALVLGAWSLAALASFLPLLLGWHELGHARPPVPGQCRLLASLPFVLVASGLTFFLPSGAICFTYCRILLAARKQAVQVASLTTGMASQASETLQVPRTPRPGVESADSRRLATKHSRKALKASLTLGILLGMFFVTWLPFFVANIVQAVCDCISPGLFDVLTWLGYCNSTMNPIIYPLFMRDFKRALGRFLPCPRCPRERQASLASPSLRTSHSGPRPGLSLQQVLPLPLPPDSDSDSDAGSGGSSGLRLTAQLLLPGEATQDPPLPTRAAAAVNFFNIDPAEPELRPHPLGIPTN

As to “2-{[6-(5-Chlorothien-2-yl)sulfonyl]-6H-thieno[2,3-b]pyrrol-4-yl}ethylamine [Example 11]”, the Ki came out at 4.9 ± 0.8 nM.
Next, “N,N-dimethyl-2-{[6-(3-chlorophenyl)sulfonyl]-6H-thieno[2,3-b]pyrrol-4-yl}ethylamine [Example 40]”: 1.6 ± 0.3 nM; “2-{[4-(2-chlorophenyl)sulfonyl]-4H-thieno[3,2-b]pyrrol-6-yl}ethylamine [Example 69]”: 2.7 ± 0.2 nM; `CN(C)CCc1cn(S(=O)(=O)c2cccc(F)c2)c2ccsc12` [Example 79]: 0.9 nM.
On to `NCCc1cn(S(=O)(=O)c2ccc3ccccc3c2)c2sccc12` [Example 13, 2-[6-(2-naphthylsulfonyl)-6H-thieno[2,3-b]pyrrol-4-yl]ethylamine], for which the Ki was 16.7 ± 2.4 nM.
`CN(C)CCc1cn(S(=O)(=O)c2ccccc2F)c2ccsc12` [Example 78]: the inhibitory constant (Ki) worked out at 2.1 ± 0.1 nM.
Next, `Cc1nc(S(=O)(=O)n2cc(CCN(C)C)c3ccsc32)cn1C` [Example 60, N,N-dimethyl-2-{[6-(1,2-dimethyl-1H-imidazol-4-yl)sulfonyl]-6H-thieno[2,3-b]pyrrol-4-yl}ethylamine]: 50 ± 1 nM; “N,N-dimethyl-2-{[6-(2,3-dichlorophenyl)sulfonyl]-6H-thieno[2,3-b]pyrrol-4-yl}ethyl-amine [Example 53]”: 3 ± 0.1 nM; “2-{[6-(2-chloroimidazo[1,2-a]pyrid-3-yl)sulfonyl]-6H-thieno[2,3-b]pyrrol-4-yl}-ethylamine [Example 20]”: 11.3 ± 0.3 nM.
In the case of `Cc1c(S(=O)(=O)n2cc(CCN(C)C)c3ccsc32)sc2ccc(Cl)cc12` [Example 45, N,N-dimethyl-2-{[6-(5-chloro-3-methylbenzo[b]thien-2-yl)sulfonyl]-6H-thieno[2,3-b]pyrrol-4-yl}ethylamine] it was 20.3 ± 3.4 nM; in that of `Cc1c(S(=O)(=O)n2cc(CCN)c3sccc32)sc2ccc(Cl)cc12` [Example 68], 25 ± 1 nM.
In the case of `NCCc1cn(S(=O)(=O)c2cccc3cccnc23)c2sccc12` [Example 31, 2-{[6-(quinolin-8-yl)sulfonyl]-6H-thieno[2,3-b]pyrrol-4-yl}-ethylamine], the Ki worked out at 8.6 ± 0.8 nM.
Next, `CN(C)CCc1cn(S(=O)(=O)c2cccc(C(F)(F)F)c2)c2sccc12` [Example 39, N,N-dimethyl-2-{{[6-(3-trifluoromethyl)phenyl]sulfonyl}-6H-thieno[2,3-b]pyrrol-4-yl}-ethylamine]: 2.3 ± 0.5 nM; `CN(C)CCc1cn(S(=O)(=O)c2cccc3cccnc23)c2sccc12` [Example 61, N,N-dimethyl-2-{[6-(8-quinolinyl)sulfonyl]-6H-thieno[2,3-b]pyrrol-4-yl}ethylamine]: 4.7 ± 0.1 nM; `NCCc1cn(S(=O)(=O)c2cccs2)c2sccc12` [Example 26]: 20 ± 2 nM.
`NCCc1cn(S(=O)(=O)c2cc(Cl)c(Cl)s2)c2sccc12` [Example 27, 2-{[6-(4,5-dichlorothien-2-yl)sulfonyl]-6H-thieno[2,3-b]pyrrol-4-yl}ethylamine]: the Ki is 32.7 ± 4.1 nM.
Next, `NCCc1cn(S(=O)(=O)c2cccc(C(F)(F)F)c2)c2sccc12` [Example 9, 2-{[6-(3-trifluoromethyl)phenylsulfonyl]-6H-thieno[2,3-b]pyrrol-4-yl}ethylamine]: 8.9 ± 0.7 nM.
In the case of `COc1cccc(S(=O)(=O)n2cc(CCN)c3sccc32)c1` [Example 67, 2-{[4-(3-methoxyphenyl)sulfonyl]-4H-thieno[3,2-b]pyrrol-6-yl}ethylamine] it was 2 ± 0.1 nM; in that of `CN(C)CCc1cn(S(=O)(=O)c2ccccc2F)c2sccc12` [Example 46, N,N-dimethyl-2-{[6-(2-fluorophenyl)sulfonyl]-6H-thieno[2,3-b]pyrrol-4-yl}ethylamine], 1.8 ± 0.1 nM.
Next, `COc1cccc(S(=O)(=O)n2cc(CCN)c3ccsc32)c1` [Example 14, 2-{[6-(3-methoxyphenyl)sulfonyl]-6H-thieno[2,3-b]pyrrol-4-yl}ethylamine]: 2.3 ± 0.1 nM; “2-{[4-(3-chlorophenyl)sulfonyl]-4H-thieno[3,2-b]pyrrol-6-yl}ethylamine [Example 65]”: 2.7 ± 0.1 nM; `CN(C)CCc1cn(S(=O)(=O)c2c(Cl)nc3sccn23)c2ccsc12` [Example 74]: 0.2 nM.
As to “2-{[6-(6-Chloroimidazo[2,1-b][1,3]thiazol-5-yl)sulfonyl]-6H-thieno[2,3-b]pyrrol-4-yl}-ethylamine [Example 12]”, the Ki is 2.1 ± 0.1 nM.
Next, `NCCc1cn(S(=O)(=O)c2cccc(Br)c2)c2sccc12` [Example 24, 2-{[6-(3-bromophenyl)sulfonyl]-6H-thieno[2,3-b]pyrrol-4-yl}ethylamine]: 9 ± 0.5 nM.
